We go through six molecules from patent publication US5120764A, “Inhibitors of lysyl oxidase” (Merrell Dow Pharmaceuticals Inc., priority 1988, dated 1992).

Structures can show the parent of a compound that is named as a salt.

The target of the assay is T1, lysyl oxidase (Bos taurus, UniProt P33072).
T1 sequence (P33072 170-418): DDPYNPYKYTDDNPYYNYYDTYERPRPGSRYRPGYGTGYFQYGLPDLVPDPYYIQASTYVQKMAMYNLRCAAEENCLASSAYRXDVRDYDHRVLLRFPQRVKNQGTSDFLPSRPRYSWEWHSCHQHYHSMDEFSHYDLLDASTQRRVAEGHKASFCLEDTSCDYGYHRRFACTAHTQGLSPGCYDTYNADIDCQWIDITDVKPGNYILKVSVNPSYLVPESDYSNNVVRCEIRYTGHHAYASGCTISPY
Nature of the assay: Lysyl oxidase inhibition (fluorometric assay, cadaverine substrate, horseradish peroxidase/homovanillic acid). In kind it is biochemical. To be noted: lysyl oxidase preparation from bovine aorta, 55° C., 10 minutes, pH 8.2 borate buffer, read-out: IC50 (concentration of test compound required to inhibit the enzyme activity by 50 percent). The method, then:
Lysyl oxidase preparation is obtained from bovine aorta by the procedures modified from M. A. Williams and H. M. Kagan, Anal. Biochem. 149, 430-437 (1985) and H. M. Kagan and K. A. Sullivan, Methods in Enzyml. 82, 637-650 (1982). The aorta is obtained fresh on the day of the enzyme preparation and is maintained at 4° C. for the duration of its use in the experiments. The aorta is ground fine and is homogenized for 90 seconds in buffer (2.5 ml of a buffer consisting of 16 mM potassium phosphate and 1 mM phenylmethylsulfonyl fluoride/g of tissue) with 0.15M NaCl added, then the mixture is centrifuged (20 minutes at 11,000×g). The homogenization followed by centrifugation procedure is repeated with buffer plus 0.15 M NaCl, buffer alone, and buffer plus 1M urea. After homogenization in 1M urea, the mixture is stirred for 1 hour prior to centrifugation. The resulting pellet is homogenized in buffer plus 4M urea, stirred for 18 hours, and centrifuged. The supernatant with lysyl oxidase activity is saved. The tissue is homogenized in buffer plus 4M urea, stirred overnight, and centrifuged twice more. The supernatants with lysyl oxidase activity are saved.
The assay is adopted from that of P. C. Trackman, et al., Anal. Biochem. 113, 336-342 (1981). Each assay consists of two tubes, one that contains 0.2 mM β-aminopropionitrile, BAPN, from the start and one to which BAPN is added to quench the reaction. Lysyl oxidase preparation (0.150 ml), urea (0.300 ml, 4M), buffer (0.930 ml, 200 mM borate at pH =8.2), homovanillic acid (0.020 ml of 50 mM solution), and horseradish peroxidase (0.010 ml of Sigma Type II at 5 mg/ml protein) are incubated for 2 minutes at 55° C. in a test tube. Cadaverine (0.100 ml of 150 mM) and test compound, if any, is added and the incubation continued at 55° C. for an additional 10 minutes. The test tubes containing this mixture are then cooled in a ice bath after adding BAPN to any tubes not containing it. The difference in fluorescence (excitation 315 nm and emission 425 nm) between corresponding tubes that received BAPN at 0 minutes and at 10 minutes is a measure of enzyme activity. A standard curve to determine the amount of cadaverine converted by lysyl oxidase is prepared as follows. Assay mixtures containing BAPN are made up as described and known amounts of hydrogen peroxide are added simultaneously with cadaverine and the fluorescence changes after 10 minutes reaction are determined.
Using this method the lysyl oxidase inhibiting activity expressed as IC50 (inhibitory concentration), that is the concentration of test compound required to inhibit the enzyme activity by 50 percent, was determined for various compounds of this invention.
`C=C=C(CN)c1cc2ccccc2s1` [β-Ethylenylidene-Benzo[β]Thiophene-2-Ethanamine Hydrochloride]: the IC50 worked out at 10 nM.

Take `C=C=C(CN)CCCCCC` [β-Ethenylidene-1-Octanamine Hydrochloride]: the IC50 amounted to 1 nM.

Turning to `C=C=C(CN)CCCc1ccccc1` [β-Ethenylidenebenzenepentanamine Hydrochloride], the IC50 worked out at 1 nM.

Take `C=C=C(CN)CCc1ccccc1` [β-Ethenylidenebenzenebutanamine Hydrochloride]: the IC50 turned out to be 1 nM.

With `C=C=C(CN)c1cccs1` [β-Ethenylidene-2-Thiopheneethanamine-4-Methylbenzenesulfonate], the IC50 worked out at 10 nM.

`C=C=C(CN)c1ccc(OC)cc1` [β-Ethenylidene-4-Methoxybenzeneethanamine-4-Methylbenzenesulfonate]: the IC50 was determined as 10 nM.
